Measured values taken from the NIST ThermoML archive (doi:10.1016/j.jct.2014.05.020).

Experiment: excess molar enthalpy (molar enthalpy of mixing); xn = mol fraction of the nth substance listed
Conditions: Liquid, Flow calorimetry

C1CCCCC1 [cyclohexane] + c1ccccc1
excess molar enthalpy [kcal/mol]
Conditions	298.2 K	348.2 K	423.2 K
100 kPa, x2 = 0.1191	0.0766	–	–
100 kPa, x2 = 0.2332	0.132	–	–
100 kPa, x2 = 0.2885	0.152	–	–
100 kPa, x2 = 0.3426	0.167	–	–
100 kPa, x2 = 0.3957	0.179	–	–
100 kPa, x2 = 0.4478	0.186	–	–
100 kPa, x2 = 0.4988	0.189	–	–
100 kPa, x2 = 0.5488	0.188	–	–
100 kPa, x2 = 0.5978	0.184	–	–
100 kPa, x2 = 0.6459	0.176	–	–
100 kPa, x2 = 0.6931	0.165	–	–
100 kPa, x2 = 0.7394	0.15	–	–
100 kPa, x2 = 0.7849	0.133	–	–
100 kPa, x2 = 0.8295	0.112	–	–
100 kPa, x2 = 0.9163	0.063	–	–
5000 kPa, x2 = 0.1189	0.076	0.0637	0.0511
5000 kPa, x2 = 0.1765	0.106	–	0.072
5000 kPa, x2 = 0.233	0.132	0.11	0.0886
5000 kPa, x2 = 0.2882	0.152	–	–
5000 kPa, x2 = 0.3424	0.167	0.141	0.113
5000 kPa, x2 = 0.3955	0.178	–	–
5000 kPa, x2 = 0.4475	0.184	0.156	0.126
5000 kPa, x2 = 0.4985	0.188	–	–
5000 kPa, x2 = 0.5485	0.187	0.159	0.128
5000 kPa, x2 = 0.5976	0.182	–	–
5000 kPa, x2 = 0.6457	0.174	0.148	0.12
5000 kPa, x2 = 0.6929	0.166	–	–
5000 kPa, x2 = 0.7392	0.151	0.126	0.103
5000 kPa, x2 = 0.7847	0.133	–	–
5000 kPa, x2 = 0.8293	0.113	0.0938	0.0766
5000 kPa, x2 = 0.8732	0.0885	–	0.0603
5000 kPa, x2 = 0.9162	0.0614	0.0514	0.0425
5000 kPa, x2 = 0.9585	–	0.0264	0.0221
15000 kPa, x2 = 0.1188	0.0714	0.0601	0.0502
15000 kPa, x2 = 0.1763	–	–	0.0712
15000 kPa, x2 = 0.2327	0.129	0.109	0.0873
15000 kPa, x2 = 0.2879	0.15	–	–
15000 kPa, x2 = 0.3421	0.166	0.14	0.111
15000 kPa, x2 = 0.3951	0.178	–	–
15000 kPa, x2 = 0.4471	0.185	0.156	0.124
15000 kPa, x2 = 0.4981	0.188	–	–
15000 kPa, x2 = 0.5482	0.188	0.158	0.125
15000 kPa, x2 = 0.5972	0.184	–	–
15000 kPa, x2 = 0.6454	0.175	0.148	0.117
15000 kPa, x2 = 0.6926	0.164	–	–
15000 kPa, x2 = 0.7389	0.149	0.127	0.1
15000 kPa, x2 = 0.7845	0.131	–	–
15000 kPa, x2 = 0.8291	0.11	0.0941	0.0743
15000 kPa, x2 = 0.873	–	–	0.0577
15000 kPa, x2 = 0.9161	0.0587	0.0511	0.0403
15000 kPa, x2 = 0.9584	–	0.0259	0.0203
25000 kPa, x2 = 0.1187	0.072	0.0642	0.0506
25000 kPa, x2 = 0.1762	–	0.0901	0.0707
25000 kPa, x2 = 0.2325	0.129	0.112	0.0873
25000 kPa, x2 = 0.3418	0.167	0.143	0.112
25000 kPa, x2 = 0.4469	0.185	0.158	0.124
25000 kPa, x2 = 0.5479	0.187	0.16	0.125
25000 kPa, x2 = 0.6451	0.175	0.149	0.117
25000 kPa, x2 = 0.7388	0.149	0.127	0.0996
25000 kPa, x2 = 0.7843	0.132	–	–
25000 kPa, x2 = 0.829	0.111	0.0933	–
25000 kPa, x2 = 0.8729	–	0.0728	–
25000 kPa, x2 = 0.916	0.0593	0.0502	–
25000 kPa, x2 = 0.9584	–	0.0242	–
